Results reported in patent US20230086702A1, “SUBSTITUTED 2-AMINO-PYRAZOLYL-[1,2,4]TRIAZOLO[1,5A]PYRIDINE DERIVATIVES AND USE THEREOF” (The Johns Hopkins University, priority 2019, published 2023).

Tests used:
DLK = target: T1, DLK (Homo sapiens, UniProt Q12852); experiment: DLK biochemical assay (TR-FRET, MKK7 phosphorylation); settings: DLK catalytic domain, MKK7 substrate, 60 μM ATP
T1 construct: 10 nM DLK, catalytic domain, Carna Biosiences; purchased Carna Biosciences ('Carna Biosiences' [sic])
T1 sequence (Q12852 125-366 limits assumed): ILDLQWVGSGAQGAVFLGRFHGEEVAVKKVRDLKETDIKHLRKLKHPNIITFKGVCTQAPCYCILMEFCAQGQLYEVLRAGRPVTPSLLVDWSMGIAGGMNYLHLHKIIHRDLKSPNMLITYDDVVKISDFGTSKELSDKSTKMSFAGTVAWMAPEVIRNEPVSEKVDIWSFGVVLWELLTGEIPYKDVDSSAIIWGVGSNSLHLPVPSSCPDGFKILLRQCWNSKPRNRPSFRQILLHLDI
Procedure, shortened: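 TR-FRET read-out (ratio of 665 nm acceptor to Eu donor channel) tracks MKK7 T275/S277 phosphorylation by DLK, using Eu-labelled anti-phospho-MKK7 and XL665-labelled anti-His on His-MKK7. Reactions were stopped and detected in pH 7.5 Tris buffer containing 100 mM EDTA, 100 mM NaCl, 200 mM KF and 0.01% Tween 20.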

LZK = target: T2, LZK (Homo sapiens, UniProt O43283); experiment: LZK biochemical assay (TR-FRET, MKK7 phosphorylation); settings: LZK catalytic domain, MKK7 substrate, 15 μM ATP
T2 construct: 10 nM LZK, catalytic domain, Carna Biosiences in assay buffer; purchased Carna Biosciences ('Carna Biosiences' [sic])
T2 sequence (O43283 168-409 limits assumed): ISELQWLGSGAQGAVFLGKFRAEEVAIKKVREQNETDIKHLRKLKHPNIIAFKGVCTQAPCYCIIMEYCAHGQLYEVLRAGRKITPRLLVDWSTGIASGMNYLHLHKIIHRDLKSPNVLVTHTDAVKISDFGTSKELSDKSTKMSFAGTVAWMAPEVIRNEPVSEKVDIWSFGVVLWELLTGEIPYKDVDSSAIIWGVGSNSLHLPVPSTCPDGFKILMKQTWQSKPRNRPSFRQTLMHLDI

Row | Compound | IC50 (DLK) [nM] | IC50 (LZK) [nM]
1 | CC[C@H](C)NC(=O)c1cc(-c2cnn(C(c3ccccc3)C3CC(F)(F)C3)c2)cn2nc(N)nc12 (mixture of isomers) [Example I-31, 2-Amino-N-[(2S)-butan-2-yl]-6-{1-[(3,3-difluorocyclobutyl)(phenyl)methyl]-1H-pyrazol-4-yl}[1,2,4]triazolo[1,5-a]pyridine-8-carboxamide] | 3.8 | 150
2 | CCC(c1ccc(C(F)(F)F)nc1)n1cc(-c2cc(C(=O)NC(C)(C)CO)c3nc(N)nn3c2)cn1 (single isomer, unassigned) [Example I-165, 2-Amino-N-(1-hydroxy-2-methylpropan-2-yl)-6-(1-{1-[6-(trifluoromethyl)pyridin-3-yl]propyl}-1H-pyrazol-4-yl)[1,2,4]triazolo[1,5-a]pyridine-8-carboxamide] | 64 | 190
3 | CC[C@H](C)NC(=O)c1cc(-c2cnn(C3CCCc4cccnc43)c2)cc2nc(N)nn12 (mixture of isomers) [Example I-22, 2-Amino-N-[(2S)-butan-2-yl]-7-[1-(5,6,7,8-tetrahydroquinolin-8-yl)-1H-pyrazol-4-yl][1,2,4]triazolo[1,5-a]pyridine-5-carboxamide] | 27 | 13
4 | CC[C@H](C)NC(=O)c1cc(-c2cnn(C(CC(F)(F)F)c3ccccc3)c2)cn2nc(N)nc12 (single isomer, unassigned) [Example I-38] | 1.3 | 91
5 | CC[C@H](C)NC(=O)c1cc(-c2cnn(C(c3ccc(C(F)F)nc3)C3CC3)c2)cc2nc(N)nn12 (single isomer, unassigned) [Example I-100] | 2.8 | 4.3
6 | CC[C@H](C)NC(=O)c1cc(-c2cnn(Cc3ccc(C(F)(F)F)cc3)c2)cn2nc(N)nc12 (single isomer, unassigned) [Example I-46] | 25 | 40
7 | CCC(c1ccc(Cl)s1)n1cc(-c2cc(C(=O)N[C@@H](C)CC)c3nc(N)nn3c2)cn1 (single isomer, unassigned) [Example I-131] | 1.5 | 33
8 | CC(C)[C@@H](c1ccc(F)cc1)n1cc(-c2cc(C(=O)N[C@@H](C)CO)c3nc(N)nn3c2)cn1 (single isomer, unassigned) [Example I-162] | 1.3 | 83
9 | CC[C@H](c1ccc(C(F)(F)F)nc1)n1cc(-c2cc(C(=O)N[C@@H](C)CC)n3nc(N)nc3c2)cn1 (single isomer, unassigned) [Example I-102] | 7 | 11
10 | COC[C@H](C)NC(=O)c1cc(-c2cnn(Cc3ccc(F)cc3)c2)cn2nc(N)nc12 (single isomer, unassigned) [Example I-135, 2-Amino-6-{1-[(4-fluorophenyl)methyl]-1H-pyrazol-4-yl}-N-[(25)-1-methoxypropan-2-yl][1,2,4]triazolo[1,5-a]pyridine-8-carboxamide] | 190 | 550
11 | CC[C@H](C)NC(=O)c1cc(-c2cnn(C(c3ccccc3)C3CCC3)c2)cn2nc(N)nc12 (mixture of isomers) [Example I-27, 2-Amino-N-[(2S)-butan-2-yl]-6-{1-[cyclobutyl(phenyl)methyl]-1H-pyrazol-4-yl}[1,2,4]triazolo[1,5-a]pyridine-8-carboxamide] | 7.7 | 390
12 | CC[C@@H](NC(=O)c1cc(-c2cnn(Cc3ccccc3)c2)cn2nc(N)nc12)C(F)(F)F (single isomer, unassigned) [Example I-134] | 230 | 970
13 | CC[C@H](C)NC(=O)c1cc(-c2cnn(C(c3ccccc3)C3CCOCC3)c2)cc2nc(N)nn12 (single isomer, unassigned) [Example I-52] | 0.7 | 5.6
14 | CC[C@H](C)NC(=O)c1cc(-c2cnn(C(c3c(F)cncc3F)C(C)C)c2)cc2nc(N)nn12 (single isomer, unassigned) [Example I-125] | 5.4 | 66
15 | Nc1nc2cc(-c3cnn(C4CCOCC4)c3)cc(C(=O)N[C@H]3CCOC3)n2n1 (single isomer, unassigned) [Example I-176] | 220 | 210
16 | CC[C@H](C)NC(=O)c1cc(-c2cnn(C(c3ccccc3)C3CCOCC3)c2)cc2nc(N)nn12 (single isomer, unassigned) [Example I-53] | 11 | 24

Row | Compound | IC50 (DLK) [nM] | IC50 (LZK) [nM]
17 | CCC(c1ccc(Cl)s1)n1cc(-c2cc(C(=O)N[C@@H](C)CC)c3nc(N)nn3c2)cn1 (single isomer, unassigned) [Example I-130] | 53 | 100
18 | CC[C@H](C)NC(=O)c1cc(-c2cnn(C(c3ccccc3)C3CCOCC3)c2)cc2nc(N)nn12 (mixture of isomers) [Example I-51, 2-Amino-N-[(2S)-butan-2-yl]-7-{1-[phenyl(tetrahydro-2H-pyran-4-yl)methyl]-1H-pyrazol-4-yl}[1,2,4]triazolo[1,5-a]pyridine-5-carboxamide] | 1.8 | 8.7
19 | CCC(c1ccc(C(F)F)nc1)n1cc(-c2cc(C(=O)N[C@@H](C)CC)c3nc(N)nn3c2)cn1 (single isomer, unassigned) [Example I-66] | 0.8 | 4.1
20 | CC[C@H](C)NC(=O)c1cc(-c2cnn(C(c3ccc(OCC(F)(F)F)nc3)C3CC3)c2)cc2nc(N)nn12 (single isomer, unassigned) [Example I-121] | 1.9 | 30
21 | CC(C)C(c1cncc(Cl)c1)n1cc(-c2cc(C(=O)NC(C)(C)CO)c3nc(N)nn3c2)cn1 (single isomer, unassigned) [Example I-174, 2-Amino-6-{1-[1-(5-chloropyridin-3-yl)-2-methylpropyl]-1H-pyrazol-4-yl}-N-(1-hydroxy-2-methylpropan-2-yl)[1,2,4]triazolo[1,5-a]pyridine-8-carboxamide] | 62 | 690
22 | CC[C@H](C)NC(=O)c1cc(-c2cnn(C3CCN(C(C)C)CC3)c2)cn2nc(N)nc12 (single isomer, unassigned) [Example I-7] | 32 | 3.8
23 | CCC(c1ccc(C(F)F)nc1)n1cc(-c2cc(C(=O)N[C@@H](C)CC)c3nc(N)nn3c2)cn1 (single isomer, unassigned) [Example I-65] | 25 | 33
24 | CC[C@H](C)NC(=O)c1cc(-c2cnn(C(COC)c3ccccc3)c2)cn2nc(N)nc12 (single isomer, unassigned) [Example I-42] | 9.8 | 37
25 | CC[C@H](C)NC(=O)c1cc(-c2cnn(C(c3cncc(Cl)c3)C(C)C)c2)cn2nc(N)nc12 (mixture of isomers) [Example I-61, 2-Amino-N-[(2S)-butan-2-yl]-6-{1-[1-(5-chloropyridin-3-yl)-2-methylpropyl]-1H-pyrazol-4-yl}[1,2,4]triazolo[1,5-a]pyridine-8-carboxamide] | 0.6 | 3.3
26 | CCC(c1ccc(OC(F)(F)F)nc1)n1cc(-c2cc(C(=O)N[C@@H](C)CO)c3nc(N)nn3c2)cn1 (mixture of isomers) [Example I-157, 2-Amino-N-[(2S)-1-hydroxypropan-2-yl]-6-(1-{1-[6-(trifluoromethoxy)pyridin-3-yl]propyl}-1H-pyrazol-4-yl)[1,2,4]triazolo[1,5-a]pyridine-8-carboxamide] | 5.7 | 13
27 | CC[C@H](C)NC(=O)c1cc(-c2cnn(C3CCN(C(C)=O)CC3)c2)cn2nc(N)nc12 (single isomer, unassigned) [Example I-11] | 82 | 14
28 | CC[C@H](C)NC(=O)c1cc(-c2cnn(C(c3ccc(C(F)(F)F)nc3)C(C)C)c2)cn2nc(N)nc12 (single isomer, unassigned) [Example I-74] | 10 | 16
29 | CC[C@H](C)NC(=O)c1cc(-c2cnn([C@H](c3ccc(F)cc3)C(C)C)c2)cn2nc(N)nc12 (single isomer, unassigned) [Example I-45] | 1.3 | 32
30 | CC[C@H](C)NC(=O)c1cc(-c2cnn(C(c3ccc(C(F)(F)F)nc3)C3CCOCC3)c2)cn2nc(N)nc12 (single isomer, unassigned) [Example I-77] | 5.9 | 6.9
31 | tert-Butyl 4-{(4-{2-amino-8-[(2S)-butan-2-ylcarbamoyl][1,2,4]triazolo[1,5-a]pyridin-6-yl}-1H-pyrazol-1-yl)[6-(trifluoromethyl)pyridin-3-yl]methyl}piperidine-1-carboxylate [Example I-80] | 45 | 40
32 | CC[C@H](C)NC(=O)c1cc(-c2cnn(C3CCN(CC4COC4)CC3)c2)cn2nc(N)nc12 (single isomer, unassigned) [Example I-9] | 80 | 6.9
